Measured values taken from the supplement of paper PMC10331698.
± gives the standard deviation of the averaged measurements.

Assays:
Experiment in all cases: level (log10 ratio to DMSO vehicle control); higher = higher biomarker level / cell amount than vehicle control
Details in all cases: in DMSO
[1] = compound: COC(=O)C(F)(F)C(F)(F)OC(F)(C(F)(F)F)C(F)(F)OC(F)=C(F)F [Methyl perfluoro(3-(1-ethenyloxypropan-2-yloxy)propanoate)]
Experimental: (§1)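 BioMAP Diversity Plus panel of 12 human primary cell co-culture systems (3C, 4H, LPS, SAg, BT, BF4T, BE3C, CASM3C, HDF3CGF, KF3CT, MyoF, Mphg). Compounds were added 1 h before stimulation and left for 24 h (MyoF 48 h; BT 72 h for soluble read-outs or 6 d for IgG). Biomarkers were read by ELISA, cytotoxicity by SRB, PBMC viability and proliferation by Alamar Blue. Each well value was divided by the mean of 8 DMSO control wells on the same plate and log10 transformed; duplicate blinded samples were tested at 4 concentrations.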

[2] = compound: FC(F)(F)C(F)(F)C(F)(F)C(F)(F)C(F)(F)C(F)(F)C(F)(F)I [1-Iodopentadecafluoroheptane]
Experimental: as §1

[3] = compound: FC(F)(F)C(F)(F)CNCC(F)(F)C(F)(F)F [Bis(1H,1H-perfluoropropyl)amine]
Experimental: as §1

Nonafluoropentanamide = compound: NC(=O)C(F)(F)C(F)(F)C(F)(F)C(F)(F)F [Nonafluoropentanamide]
Experimental: as §1

[4] = compound: O=S(=O)(O)C(F)(F)C(F)(F)C(F)(F)C(F)(F)C(F)(F)C(F)(F)C(F)(F)C(F)(F)C(F)(F)C(F)(F)F [Sodium perfluorodecanesulfonate]
Experimental: as §1

[5] = compound: O=S(=O)(O)CCC(F)(F)C(F)(F)C(F)(F)C(F)(F)C(F)(F)C(F)(F)F [6:2 Fluorotelomer sulfonic acid]
Experimental: as §1

| Test System | level (log10) ([1]; 6700 nM) | level (log10) ([1]; 20000 nM) | level (log10) ([2]; 6700 nM) | level (log10) ([2]; 20000 nM) | level (log10) ([3]; 6700 nM) | level (log10) ([3]; 20000 nM) | level (log10) ([3]; 60000 nM) | level (log10) (Nonafluoropentanamide; 6700 nM) | level (log10) (Nonafluoropentanamide; 20000 nM) | level (log10) (Nonafluoropentanamide; 60000 nM) | level (log10) ([4]; 1500 nM) | level (log10) ([4]; 4400 nM) | level (log10) ([4]; 13000 nM) | level (log10) ([4]; 40000 nM) | level (log10) ([5]; 6700 nM) | level (log10) ([5]; 20000 nM) | level (log10) ([5]; 60000 nM) |
| --- | --- | --- | --- | --- | --- | --- | --- | --- | --- | --- | --- | --- | --- | --- | --- | --- | --- |
| BT:Secreted IgG | 0.006 ± 0.0014 | 0.007 ± 0.03 | -0.006 ± 0.05 | -0.01 ± 0.044 | 0.0095 ± 0.0021 | 0.001 ± 0.023 | 0.0185 ± 0.00071 | -0.001 ± 0.0014 | -0.006 ± 0.0099 | -0.005 ± 0.014 | -0.026 ± 0.038 | -0.0155 ± 0.022 | -0.0275 ± 0.046 | -0.028 ± 0.028 | 0.0005 ± 0.054 | -0.048 ± 0.031 | -0.081 ± 0.048 |
| BT:sIL-2 | -0.0335 ± 0.018 | -0.059 ± 0.038 | -0.113 ± 0.07 | -0.017 ± 0.081 | -0.011 ± 0.064 | 0.012 ± 0.064 | 0.0645 ± 0.1 | 0.0345 ± 0.053 | 0.002 ± 0.033 | -0.0105 ± 0.011 | 0.0125 ± 0.09 | 0.014 ± 0.051 | 0.0265 ± 0.1 | 0.12 ± 0.064 | -0.0555 ± 0.011 | 0.0325 ± 0.018 | -0.01 ± 0.031 |
| BT:sIL-6 | 0.016 ± 0.024 | 0.0175 ± 0.047 | -0.0825 ± 0.0078 | 0.024 ± 0.044 | 0.0285 ± 0.0064 | 0.02 ± 0.013 | 0.0245 ± 0.011 | -0.0015 ± 0.039 | -0.0035 ± 0.036 | -0.0665 ± 0.03 | 0 ± 0.031 | -0.0045 ± 0.026 | -0.036 ± 0.1 | -0.0235 ± 0.05 | 0.0255 ± 0.039 | 0.0375 ± 0.016 | 0.003 ± 0.052 |
| BT:sIL-17A | 0.033 ± 0.018 | 0.061 ± 0.17 | -0.213 ± 0.3 | -0.112 ± 0.31 | -0.0465 ± 0.067 | -0.075 ± 0.13 | -0.069 ± 0.25 | -0.145 ± 0.18 | 0.05 ± 0.064 | -0.213 ± 0.17 | 0.0435 ± 0.16 | 0.057 ± 0.17 | 0.052 ± 0.3 | -0.0495 ± 0.11 | -0.135 ± 0.05 | -0.005 ± 0.081 | -0.126 ± 0.21 |
| BT:sTNF-alpha | -0.0085 ± 0.018 | 0.0935 ± 0.032 | -0.051 ± 0.018 | 0.093 ± 0.17 | 0.046 ± 0.05 | 0.0265 ± 0.21 | 0.0915 ± 0.12 | 0.089 ± 0.086 | 0.031 ± 0.069 | 0.0565 ± 0.04 | -0.018 ± 0.13 | 0.005 ± 0.067 | -0.0135 ± 0.0064 | 0.0075 ± 0.21 | -0.011 ± 0.031 | 0.0335 ± 0.07 | -0.021 ± 0.04 |
| LPS:IL-1alpha | 0.0045 ± 0.022 | 0.0515 ± 0.011 | -0.0655 ± 0.03 | -0.0495 ± 0.047 | 0.0065 ± 0.04 | -0.017 ± 0.027 | -0.0125 ± 0.011 | -0.1 ± 0.011 | -0.102 ± 0.0099 | -0.0555 ± 0.0092 | 0.0145 ± 0.026 | -0.0335 ± 0.032 | -0.004 ± 0.041 | -0.178 ± 0.1 | 0.007 ± 0.011 | 0.0225 ± 0.023 | 0.037 ± 0.05 |
| LPS:M-CSF | -0.0065 ± 0.013 | -0.0105 ± 0.0064 | 0.023 ± 0.047 | 0.0155 ± 0.086 | -0.006 ± 0.083 | -0.0485 ± 0.12 | -0.0485 ± 0.087 | 0.0065 ± 0.07 | -0.0075 ± 0.04 | -0.011 ± 0.0042 | 0.0045 ± 0.021 | 0.005 ± 0.0057 | 0.01 ± 0.027 | -0.006 ± 0.037 | -0.0045 ± 0.015 | 0.004 ± 0.03 | 0.0485 ± 0.039 |
| LPS:SRB | -0.012 | -0.0085 ± 0.0078 | 0.0035 ± 0.0064 | 0.003 ± 0.0042 | -0.008 ± 0.0042 | 0.001 ± 0.016 | -0.0015 ± 0.0021 | 0.0015 ± 0.011 | -0.0065 ± 0.005 | -0.003 ± 0.0042 | 0.0025 ± 0.0021 | -0.001 ± 0.0057 | -0.0105 ± 0.00071 | -0.02 ± 0.017 | -0.0055 ± 0.00071 | -0.0005 ± 0.0064 | -0.001 ± 0.023 |
| LPS:sPGE2 | -0.015 ± 0.021 | 0.0015 ± 0.029 | -0.062 ± 0.013 | -0.103 ± 0.027 | 0.038 ± 0.033 | 0.005 ± 0.0014 | 0.0485 ± 0.067 | -0.0015 ± 0.013 | -0.0115 ± 0.016 | -0.022 ± 0.0099 | 0.035 ± 0.02 | 0.006 ± 0.041 | -0.009 ± 0.04 | -0.123 ± 0.023 | -0.008 ± 0.023 | -0.0215 ± 0.047 | -0.0345 ± 0.029 |
| LPS:sTNF-alpha | 0.0115 ± 0.046 | 0.0395 ± 0.019 | 0.0115 ± 0.018 | 0.0025 ± 0.0092 | 0.007 ± 0.028 | 0.005 ± 0.013 | -0.0005 ± 0.0078 | 0.018 ± 0.037 | 0.0125 ± 0.0092 | -0.043 ± 0.013 | -0.0135 ± 0.0078 | -0.0375 ± 0.059 | -0.162 ± 0.0085 | -0.42 ± 0.052 | -0.002 ± 0.0042 | 0 ± 0.0057 | 0.0015 ± 0.0092 |
| SAg:CCL2/MCP-1 | -0.01 ± 0.0085 | 0.011 ± 0.058 | 0.02 ± 0.05 | 0.0105 ± 0.033 | -0.013 ± 0.016 | -0.006 ± 0.0099 | 0.017 ± 0.028 | -0.0125 ± 0.0035 | -0.0175 ± 0.012 | 0.0195 ± 0.053 | 0.0175 ± 0.022 | -0.014 ± 0.016 | 0.043 ± 0.0085 | 0.0825 ± 0.021 | -0.019 ± 0.0085 | -0.015 ± 0.0042 | 0.0035 ± 0.019 |
| SAg:CD38 | -0.0175 ± 0.13 | 0.038 ± 0.082 | -0.0085 ± 0.029 | -0.005 ± 0.024 | 0.001 ± 0.017 | -0.008 ± 0.018 | 0.002 ± 0.014 | -0.0345 ± 0.037 | -0.0265 ± 0.04 | -0.032 ± 0.028 | -0.018 ± 0.02 | -0.041 ± 0.03 | 0.005 ± 0.035 | -0.071 ± 0.028 | -0.0315 ± 0.012 | -0.022 ± 0.04 | -0.0505 ± 0.032 |
| SAg:CD40 | -0.0045 ± 0.021 | -0.0045 ± 0.081 | -0.0065 ± 0.013 | -0.007 ± 0.0085 | 0.011 ± 0.017 | 0.0025 ± 0.0064 | -0.003 ± 0.02 | -0.0145 ± 0.033 | 0.0055 ± 0.013 | 0.002 ± 0.018 | -0.0185 ± 0.032 | -0.042 ± 0.025 | -0.103 ± 0.055 | -0.212 ± 0.055 | -0.0275 ± 0.046 | -0.0285 ± 0.064 | -0.053 ± 0.035 |
| SAg:CD62E/E-Selectin | -0.028 ± 0.0071 | -0.0615 ± 0.032 | -0.0415 ± 0.056 | -0.008 ± 0.044 | 0.001 ± 0.013 | -0.0075 ± 0.016 | 0.01 ± 0.031 | -0.006 ± 0.018 | -0.0075 ± 0.00071 | 0.009 ± 0.0042 | -0.0105 ± 0.0064 | 0.026 ± 0.0085 | 0.0755 ± 0.04 | 0.138 ± 0.036 | -0.008 ± 0.0057 | -0.007 ± 0.013 | 0.038 ± 0.013 |
| SAg:CD69 | -0.0375 ± 0.0092 | -0.0735 ± 0.033 | -0.028 ± 0.0071 | -0.039 ± 0.0014 | 0.001 ± 0.0085 | -0.0075 ± 0.018 | -0.0125 ± 0.00071 | -0.0095 ± 0.013 | -0.025 ± 0.0085 | -0.008 ± 0.0042 | 0.007 ± 0.011 | -0.0425 ± 0.015 | -0.0215 ± 0.00071 | -0.111 ± 0.0042 | -0.0245 ± 0.059 | -0.04 ± 0.024 | -0.04 ± 0.0057 |
| SAg:PBMC Cytotoxicity | -0.0115 ± 0.025 | 0.028 ± 0.044 | -0.0165 ± 0.028 | 0.0265 ± 0.026 | 0.01 ± 0.013 | -0.011 ± 0.0028 | -0.0055 ± 0.037 | 0.009 ± 0.02 | -0.0005 ± 0.013 | 0.0295 ± 0.018 | 0.008 ± 0.027 | -0.002 ± 0.0071 | -0.037 ± 0.0028 | 0.017 ± 0.0071 | 0.0105 ± 0.00071 | 0 ± 0.0071 | 0.0305 ± 0.029 |
| SAg:Proliferation | -0.003 ± 0.018 | 0.0525 ± 0.057 | 0.0055 ± 0.043 | -0.0105 ± 0.026 | -0.0275 ± 0.012 | -0.0025 ± 0.052 | 0.0295 ± 0.076 | -0.01 ± 0.052 | -0.05 ± 0.034 | -0.0945 ± 0.1 | -0.0065 ± 0.0035 | -0.006 ± 0.0042 | -0.024 ± 0.034 | -0.023 ± 0.035 | -0.019 ± 0.027 | -0.0255 ± 0.023 | -0.0225 ± 0.0035 |
